{
  "source": "patent US10966978B2",
  "about": "“Dose and regimen for HDM2-p53 interaction inhibitors” (Novartis AG, priority 2016, dated 2021)",
  "test_system": "patients with advanced TP53 wild-type (WT) leukemias",
  "key": {"[1]": {"settings": "All subjects N = 37, All Grades"}},
  "note": "Like-named read-outs stand apart in the source and are kept apart here.",
  "data": [
    {"molecule": "COc1ncc(-c2nc3c(n2C(C)C)[C@H](c2ccc(Cl)cc2)N(c2cc(Cl)cn(C)c2=O)C3=O)c(OC)n1", "note": "[HDM201, (S)-5-(5-Chloro-1-methyl-2-oxo-1,2-dihydro-pyridin-3-yl)-6-(4-chloro-phenyl)-2-(2,4-dimethoxy-pyrimidin-5-yl)-1-isopropyl-5,6-dihydro-1H-pyrrolo[3,4-d]imidazol-4-one]", "values": [
      {"measurement": "Cycle 1 DLTs", "setting": "1A 350 mg (4 evaluable patients)", "value": 0},
      {"measurement": "Cycle 1 DLTs", "setting": "1A 400 mg (9 evaluable patients)", "value": 4},
      {"measurement": "Cycle 1 DLTs", "setting": "1A (d1 Q3W) 250 mg (3 evaluable patients)", "value": 0},
      {"measurement": "Cycle 1 DLTs, Total", "setting": "1A all doses, N = 16", "value": "4:"},
      {"measurement": "Cycle 1 DLTs", "setting": "1B (d1, d8 Q4W) 150 mg (6 evaluable patients)", "value": 1},
      {"measurement": "Cycle 1 DLT events observed", "setting": "1B, N = 6", "value": "Acute Kidney Injury G4"},
      {"measurement": "Cycle 1 DLTs", "setting": "2A 30 mg (3 evaluable patients)", "value": 0},
      {"measurement": "Cycle 1 DLTs", "setting": "2A (2 weeks on/2 weeks off) 20 mg (3 evaluable patients)", "value": 0},
      {"measurement": "Cycle 1 DLTs, Total", "setting": "2A all doses, N = 6", "value": 0},
      {"measurement": "Cycle 1 DLTs", "setting": "2C (1 week on/3 weeks off) 45 mg (8 evaluable patients)", "value": 1},
      {"measurement": "Cycle 1 DLT events observed", "setting": "2C, N = 8", "value": "Tumor Lysis Syndrome G4"},
      {"measurement": "Cycle 1 DLTs, Total", "setting": "2C, N = 8", "value": 1},
      {"measurement": "AE: Abdominal Discomfort", "setting": "[1]", "value": "1 (2.7) n (%)"},
      {"measurement": "AE: Abdominal Pain", "setting": "[1]", "value": "2 (5.4) n (%)"},
      {"measurement": "AE: Abdominal Pain Upper", "setting": "[1]", "value": "1 (2.7) n (%)"},
      {"measurement": "AE: Acute Kidney Injury", "setting": "[1]", "value": "3 (8.1) n (%)"},
      {"measurement": "AE: Amylase Increased", "setting": "[1]", "value": "3 (8.1) n (%)"},
      {"measurement": "AE: Anaemia", "setting": "[1]", "value": "16 (43.2) n (%)"},
      {"measurement": "AE: Arthralgia", "setting": "[1]", "value": "1 (2.7) n (%)"},
      {"measurement": "AE: Asthenia", "setting": "[1]", "value": "5 (13.5) n (%)"},
      {"measurement": "AE: Atrial Fibrillation", "setting": "[1]", "value": "2 (5.4) n (%)"},
      {"measurement": "AE: Atypical Pneumonia", "setting": "[1]", "value": "1 (2.7) n (%)"},
      {"measurement": "AE: Balanitis Candida", "setting": "[1]", "value": "1 (2.7) n (%)"},
      {"measurement": "AE: Blood Alkaline Phosphatase Increased", "setting": "[1]", "value": "1 (2.7) n (%)"},
      {"measurement": "AE: Blood Bilirubin Increased", "setting": "[1]", "value": "2 (5.4) n (%)"},
      {"measurement": "AE: Blood Creatinine Increased", "setting": "[1]", "value": "3 (8.1) n (%)"},
      {"measurement": "AE: Blood Phosphorus Increased", "setting": "[1]", "value": "3 (8.1) n (%)"},
      {"measurement": "AE: Blood Uric Acid Increased", "setting": "[1]", "value": "1 (2.7) n (%)"},
      {"measurement": "AE: Bone Marrow Failure", "setting": "[1]", "value": "1 (2.7) n (%)"},
      {"measurement": "AE: C-Reactive Protein Increased", "setting": "[1]", "value": "2 (5.4) n (%)"},
      {"measurement": "AE: Cardiac Failure", "setting": "[1]", "value": "1 (2.7) n (%)"},
      {"measurement": "AE: Cellulitis", "setting": "[1]", "value": "1 (2.7) n (%)"},
      {"measurement": "AE: Chronic Graft Versus Host Disease", "setting": "[1]", "value": "1 (2.7) n (%)"},
      {"measurement": "AE: Conjunctival Haemorrhage", "setting": "[1]", "value": "1 (2.7) n (%)"},
      {"measurement": "AE: Constipation", "setting": "[1]", "value": "2 (5.4) n (%)"},
      {"measurement": "AE: Cough", "setting": "[1]", "value": "1 (2.7) n (%)"},
      {"measurement": "AE: Cystitis Viral", "setting": "[1]", "value": "1 (2.7) n (%)"},
      {"measurement": "AE: Cytomegalovirus Infection", "setting": "[1]", "value": "1 (2.7) n (%)"},
      {"measurement": "AE: Decreased Appetite", "setting": "[1]", "value": "10 (27.0) n (%)"},
      {"measurement": "AE: Diarrhoea", "setting": "[1]", "value": "6 (16.2) n (%)"},
      {"measurement": "AE: Dyspepsia", "setting": "[1]", "value": "2 (5.4) n (%)"},
      {"measurement": "AE: Dyspnoea", "setting": "[1]", "value": "1 (2.7) n (%)"},
      {"measurement": "AE: Epistaxis", "setting": "[1]", "value": "1 (2.7) n (%)"},
      {"measurement": "AE: Fatigue", "setting": "[1]", "value": "6 (16.2) n (%)"},
      {"measurement": "AE: Febrile Neutropenia", "setting": "[1]", "value": "11 (29.7) n (%)"},
      {"measurement": "AE: Gamma-Glutamyltransferase Increased", "setting": "[1]", "value": "2 (5.4) n (%)"},
      {"measurement": "AE: General Physical Health Deterioration", "setting": "[1]", "value": "2 (5.4) n (%)"},
      {"measurement": "AE: Gingival Bleeding", "setting": "[1]", "value": "2 (5.4) n (%)"},
      {"measurement": "AE: Graft Versus Host Disease", "setting": "[1]", "value": "1 (2.7) n (%)"},
      {"measurement": "AE: Haemoglobin Decreased", "setting": "[1]", "value": "1 (2.7) n (%)"},
      {"measurement": "AE: Headache", "setting": "[1]", "value": "2 (5.4) n (%)"},
      {"measurement": "AE: Hyperbilirubinaemia", "setting": "[1]", "value": "3 (8.1) n (%)"},
      {"measurement": "AE: Hyperglycaemia", "setting": "[1]", "value": "1 (2.7) n (%)"},
      {"measurement": "AE: Hyperkalaemia", "setting": "[1]", "value": "1 (2.7) n (%)"},
      {"measurement": "AE: Hyperphosphataemia", "setting": "[1]", "value": "3 (8.1) n (%)"},
      {"measurement": "AE: Hyperuricaemia", "setting": "[1]", "value": "2 (5.4) n (%)"},
      {"measurement": "AE: Hypoalbuminaemia", "setting": "[1]", "value": "1 (2.7) n (%)"},
      {"measurement": "AE: Hypocalcaemia", "setting": "[1]", "value": "2 (5.4) n (%)"},
      {"measurement": "AE: Hypokalaemia", "setting": "[1]", "value": "1 (2.7) n (%)"},
      {"measurement": "AE: Hypomagnesaemia", "setting": "[1]", "value": "1 (2.7) n (%)"},
      {"measurement": "AE: Hyponatraemia", "setting": "[1]", "value": "2 (5.4) n (%)"},
      {"measurement": "AE: Hypophosphataemia", "setting": "[1]", "value": "2 (5.4) n (%)"},
      {"measurement": "AE: Hypotension", "setting": "[1]", "value": "1 (2.7) n (%)"},
      {"measurement": "AE: Infection", "setting": "[1]", "value": "1 (2.7) n (%)"},
      {"measurement": "AE: Infective Glossitis", "setting": "[1]", "value": "1 (2.7) n (%)"},
      {"measurement": "AE: Iron Overload", "setting": "[1]", "value": "1 (2.7) n (%)"},
      {"measurement": "AE: Leukopenia", "setting": "[1]", "value": "2 (5.4) n (%)"},
      {"measurement": "AE: Lip Oedema", "setting": "[1]", "value": "1 (2.7) n (%)"},
      {"measurement": "AE: Lipase Increased", "setting": "[1]", "value": "3 (8.1) n (%)"},
      {"measurement": "AE: Macular Oedema", "setting": "[1]", "value": "1 (2.7) n (%)"},
      {"measurement": "AE: Malaise", "setting": "[1]", "value": "2 (5.4) n (%)"},
      {"measurement": "AE: Mouth Haemorrhage", "setting": "[1]", "value": "2 (5.4) n (%)"},
      {"measurement": "AE: Nausea", "setting": "[1]", "value": "20 (54.1) n (%)"},
      {"measurement": "AE: Neutropenia/Neutrophil Count Decreased", "setting": "[1]", "value": "12 (32.4) n (%)"},
      {"measurement": "AE: Oedema", "setting": "[1]", "value": "1 (2.7) n (%)"},
      {"measurement": "AE: Oedema Peripheral", "setting": "[1]", "value": "1 (2.7) n (%)"},
      {"measurement": "AE: Oral Disorder", "setting": "[1]", "value": "1 (2.7) n (%)"},
      {"measurement": "AE: Pain In Extremity", "setting": "[1]", "value": "1 (2.7) n (%)"},
      {"measurement": "AE: Pancytopenia", "setting": "[1]", "value": "2 (5.4) n (%)"},
      {"measurement": "AE: Pneumonia", "setting": "[1]", "value": "1 (2.7) n (%)"},
      {"measurement": "AE: Pollakiuria", "setting": "[1]", "value": "1 (2.7) n (%)"},
      {"measurement": "AE: Pyrexia", "setting": "[1]", "value": "4 (10.8) n (%)"},
      {"measurement": "AE: Rash", "setting": "[1]", "value": "1 (2.7) n (%)"},
      {"measurement": "AE: Rash Erythematous", "setting": "[1]", "value": "1 (2.7) n (%)"},
      {"measurement": "AE: Rash Papular", "setting": "[1]", "value": "1 (2.7) n (%)"},
      {"measurement": "AE: Rectal Haemorrhage", "setting": "[1]", "value": "1 (2.7) n (%)"},
      {"measurement": "AE: Renal Failure", "setting": "[1]", "value": "1 (2.7) n (%)"},
      {"measurement": "AE: Skin Exfoliation", "setting": "[1]", "value": "1 (2.7) n (%)"},
      {"measurement": "AE: Stomatitis", "setting": "[1]", "value": "2 (5.4) n (%)"},
      {"measurement": "AE: Subarachnoid Haemorrhage", "setting": "[1]", "value": "1 (2.7) n (%)"},
      {"measurement": "AE: Thrombocytopenia/Platelet Count Decreased", "setting": "[1]", "value": "18 (48.6) n (%)"},
      {"measurement": "AE: Total", "setting": "[1]", "value": "33 (89.2) n (%)"},
      {"measurement": "AE: Tumour Lysis Syndrome", "setting": "[1]", "value": "9 (24.3) n (%)"},
      {"measurement": "AE: Vomiting", "setting": "[1]", "value": "7 (18.9) n (%)"},
      {"measurement": "AE: Weight Decreased", "setting": "[1]", "value": "1 (2.7) n (%)"},
      {"measurement": "AE: White Blood Cell Count Decreased", "setting": "[1]", "value": "4 (10.8) n (%)"},
      {"measurement": "AE: Abdominal Discomfort", "setting": "All subjects N = 37, Grade 3/4", "value": "0 n (%)"},
      {"measurement": "AE: Abdominal Pain", "setting": "All subjects N = 37, Grade 3/4", "value": "0 n (%)"},
      {"measurement": "AE: Abdominal Pain Upper", "setting": "All subjects N = 37, Grade 3/4", "value": "0 n (%)"},
      {"measurement": "AE: Acute Kidney Injury", "setting": "All subjects N = 37, Grade 3/4", "value": "1 (2.7) n (%)"},
      {"measurement": "AE: Amylase Increased", "setting": "All subjects N = 37, Grade 3/4", "value": "0 n (%)"},
      {"measurement": "AE: Anaemia", "setting": "All subjects N = 37, Grade 3/4", "value": "11 (29.7) n (%)"},
      {"measurement": "AE: Arthralgia", "setting": "All subjects N = 37, Grade 3/4", "value": "0 n (%)"},
      {"measurement": "AE: Asthenia", "setting": "All subjects N = 37, Grade 3/4", "value": "0 n (%)"},
      {"measurement": "AE: Atrial Fibrillation", "setting": "All subjects N = 37, Grade 3/4", "value": "0 n (%)"}
    ]}
  ]
}
